Source: US8003343B2, “Method for determining diamine oxidase” (Sciotec Diagnostic Technologies GmbH, priority 2005, dated 2011)

Molecular target: diamine oxidase (DAO; EC 1.4.3.6) (Homo sapiens, UniProt P19801)
Test: biochemical
Experimental: The sample is contacted and mixed with the given amount of diamine preferably dissolved in an aqueous solution. It is, of course, also possible to directly add a given amount of diamine to a defined amount of sample (e.g. in crystal form). […] After having incubated this mixture for a fixed period during which the diamine contained in the aqueous solution is degraded in the presence of DAO as a function of the amount of the latter, the diamine remaining in the mixture is derivatized by 95%, preferably 99%, even more preferred 99.5%, in particular 100%. The incubation conditions must be selected such that the DAO possibly present in the sample is able to convert the present diamine. DAO is an enzyme which converts diamine substrates such as, e.g. histamine, at such reaction rates that the incubation time will preferably last for at least 30 minutes.
FIG. 3 depicts the relative enzymatic activity of a defined amount of DAO in a sample as a function of the amount of histamine used.

diamine oxidase (DAO; EC 1.4.3.6), sequence (P19801 20-751, species assumed): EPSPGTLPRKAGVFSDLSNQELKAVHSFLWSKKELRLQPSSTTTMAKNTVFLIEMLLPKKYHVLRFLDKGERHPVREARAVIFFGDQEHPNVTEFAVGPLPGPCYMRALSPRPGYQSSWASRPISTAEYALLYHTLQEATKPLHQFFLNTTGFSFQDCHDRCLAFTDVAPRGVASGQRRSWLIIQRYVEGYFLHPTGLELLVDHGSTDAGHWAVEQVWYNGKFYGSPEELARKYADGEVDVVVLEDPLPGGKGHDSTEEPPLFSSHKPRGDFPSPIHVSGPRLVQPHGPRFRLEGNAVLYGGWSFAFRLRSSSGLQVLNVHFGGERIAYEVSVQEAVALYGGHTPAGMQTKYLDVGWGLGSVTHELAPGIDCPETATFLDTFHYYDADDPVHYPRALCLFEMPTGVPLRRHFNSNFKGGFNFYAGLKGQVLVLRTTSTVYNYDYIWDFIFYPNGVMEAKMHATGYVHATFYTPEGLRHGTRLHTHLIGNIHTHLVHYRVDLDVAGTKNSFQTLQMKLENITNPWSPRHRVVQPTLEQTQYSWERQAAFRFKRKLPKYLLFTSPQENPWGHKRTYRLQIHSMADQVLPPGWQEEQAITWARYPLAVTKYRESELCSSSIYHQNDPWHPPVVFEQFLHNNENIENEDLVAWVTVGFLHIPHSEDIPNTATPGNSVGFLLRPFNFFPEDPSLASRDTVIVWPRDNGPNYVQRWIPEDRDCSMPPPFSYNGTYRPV

- inhibition of DAO (addition of at least 100 μM histamine): at least partially inhibited
- inhibition at 500 µM (read-out: inhibition of DAO): ~60%
SMILES: NCCc1c[nH]cn1 [histamine, 1H-imidazole-4-ethylamine]
